Earlier results, collected in patent US6372499B1, “Polymeric complexes for the transfection of nucleic acids, with residues causing the destabilisation of cell membranes” (I.D.M. Immuno-Designed Molecules, priority 1996, dated 2002).

Tests used:
[1] = persons, daily dose of 300 mg per day, after a few days
[2] = test system: cells; settings: after a few hours

plasma concentration [1]: about 0.7 μM
intracellular concentration relative to the concentration in the medium [2]: more than 100 times higher
intracellular concentration ([2]; initial concentration 100 μM): exceed 10 mM
Structure (SMILES): CCN(CC)CCCC(C)Nc1ccnc2cc(Cl)ccc12 (stereo not drawn) [chloroquine]
